# Measurements published in patent US20080045500A1, “Nerve Regeneration Stimulator” (priority 2004, published 2008).
# “Also recorded” adds a separate entry of the source.
# Assays:
# [1] = test system: neural stem cells (BrdU positive cells) in hippocampal dentate gyrus; test: Nerve regeneration in mouse hippocampal dentate gyrus: BrdU labelling, immunohistochemical count and GCL volume; assay type: in vivo
# Procedure: C57BL/6 male SPF mice (8-week-old at the beginning of the experiments) purchased from Japan SLC, Inc. were used. Animals were subjected to experiments after acclimating in a breeding room under control at a temperature of 23±1° C. and illumination of 12 hours (7:00 to 19:00) for 5 days or longer. During breeding, animals had free access to solid food MF (Oriental Yeast Co., Ltd.) and water (tap water).
# BrdU (Sigma) for labeling neural stem cells was used by dissolving in a phosphate buffer solution (PBS: Sigma) containing 0.007N HCl at a concentration of 5 mg/mL (Yoshimura et al., PNAS, 98, 5874-5879, 2001, Yoshimura et al., J. Clin. Invest., 112, 1202-1210, 2003). BrdU was intraperitoneally administered at a dose of 50 mg/kg (0.1 ml BrdU solution/10 g weight) for three times (every 4 hours).
# Injectable distilled water was orally administered to animals of the vehicle control group.
# The removed brain was sliced into coronal sections in a frozen state with a thickness of 40 μm using a sliding microtome (Leica, Model SM2000R, Nussloch). The sliced brain tissues were successively placed in 10 wells of a culture plate with a PBS solution containing sodium azide such that 10 sections were placed per well.
# Immunostaining of the brain tissues were carried out by flotation (Yoshimura et al., PNAS, 98, 5874-5879, 2001, Yoshimura et al., J. Clin. Invest., 112, 1202-1210, 2003). Peroxidase method (ABC system, Vector Laboratories Inc.) was used for immunohistochemical detection of BrdU (Yoshimura et al., PNAS, 98, 5874-5879, 2001, Yoshimura et al., J. Clin. Invest., 112, 1202-1210, 2003). As a primary antibody to BrdU, rat anti-BrdU antibody (400-fold-diluted, Accurate Chemical & Scientific Corporation) was used. As a secondary antibody, rabbit IgG biotinylated antibody (200-fold-diluted, Vector Laboratories Inc.) was used
# For quantitation, four hippocampal sections (intervals of sections being 400 μm, four sections between −1.4 mm to −2.6 mm from bregma) were used for each individual. All of the BrdU positive cells present in a subgranular zone (SGZ) and a granule cell layer (GCL) of the hippocampal dentate gyrus were determined. SGZ was defined as an area with a depth of 20 μm (a size corresponding to two cells) just below the GCL (on the side of hylus). […] The GCL area in each hippocampal section was determined as a cresyl violet positive GCL area using an image analyzing software (NIH, image ver. 1.60).
# A volume of GCL (GCLV) was determined as a GCL volume in left hemisphere between −1.4 mm to −2.6 mm from bregma (Cavalieri technique). The number of BrdU positive cells in GCLV was calculated by multiplying the number of BrdU positive cells in the four hippocampal sections by 10. […]
# All of the quantitative values are indicated in mean ±standard error (n=8 for each group).
# [2] = test system: neural stem cells (BrdU positive cells) in hippocampal dentate gyrus; test: Nerve regeneration in rat hippocampal dentate gyrus: BrdU labelling, immunohistochemical count and GCL volume; assay type: in vivo; conditions: for GCL volume / Number of BrdU positive cells per hippocampus: SD rats, mean ± standard error, n=11; for Number of BrdU positive cells per hippocampus: vehicle 5490 ± 179, * p<0.05
# Procedure: SD male SPF rats (6-week-old at the beginning of the experiments) purchased from Japan SLC, Inc. were bred under the same conditions as the mice in Example 2. Animals were subjected to experiments after acclimating for 5 days or longer following purchase.
# BrdU (Sigma) for labeling neural stem cells was dissolved in PBS containing 0.014N HCl at a concentration of 10 mg/mL. BrdU was intraperitoneally administered at a dose of 50 mg/kg for three times (every 4 hours).
# Injectable distilled water was orally administered at the same volume to animals in the vehicle control group.
# The removed brain was sliced into sections as described in Example 2 for use in immunohistochemical studies.
# Immunostaining of the brain tissues were carried out as described in Example 2.
# For quantitation, four hippocampal sections (thickness of 40 μm, intervals of sections being 400 μm, four sections between −3.6 mm to −4.8 mm from bregma) were used for each individual. BrdU positive cells were counted in the same manner as Example 2. The GCL volume in each hippocampal section and the total number of BrdU positive cells in each hippocampal dentate gyrus were also determined as described in Example 2.
# In Table 2, “*” indicates p<0.05, in comparison to the vehicle control group.
# [3] = test system: rat neural progenitor cells; test: Intracellular calcium concentration of fetal rat neural progenitor cells (Fluo-3); assay type: cell-based
# Procedure: Cerebrums were isolated from fetuses obtained from 14.5 days pregnant SD female rats (Japan SLC, Inc.). Cells were dispersed by pipetting the tissue in cold L-15 medium. These cells were cultured in a suspension containing 20 ng/ml human basic fibroblast growth factor (bFGF) in serum-free D-MEM/F-12 medium (supplemented with B-27, N2 (both from Invitrogen) and gentamicin beforehand). The rat neural progenitor cells are known to form a neurosphere in this medium. After 5 to 7 days, the neurosphere was collected and pipetted to isolate the rat neural progenitor cells, followed by passage culture using the medium described above.
# The neural progenitor cells were isolated from the neurosphere that was collected a day before the experiment and suspended in the bFGF-free medium otherwise same as described above. After the number of cells was counted, 50,000 cells each were suspended in 100 μL of the medium described above and dispensed into a 96-flat bottom culture plate. Intracellular Ca^++ concentration was determined using a commercially available kit (Calcium Kit-Fluo-3, Dojindo laboratories) according to the attached instruction. To some of the wells, atropine (muscarine receptor antagonist) was added to 25 μmol/L and cultured at 37° C. for 30 minutes beforehand. […]
# [4] = test system: hippocampus of PTSD patients; conditions: administration to PTSD patients, reported by Bremner 2002; cited from earlier work
# [5] = 0.5 mg/kg orally once a day for 28 days
# [6] = 2 mg/kg orally once a day for 28 days
smiles,measurement,setting,value
"COc1cc2c(cc1OC)C(=O)C(CC1CCN(Cc3ccccc3)CC1)C2.Cl (stereo not drawn) [Donepezil, 1-benzyl-4-[(5,6-dimethoxy-1-indanone)-2-yl]methylpiperidine hydrochloride]",Number of BrdU positive cells per hippocampus,"[1]; C57BL/6 mice, 1 mg/kg orally once a day for 14 days, mean ± standard error, n=8, vehicle 1091 ± 56, * p<0.05",1528 ± 137*
same,"Effect on the volume of hippocampal nerve cell layer (GCL), in words","[1]; mice, 1 mg/kg orally, 14 days",no effect
same,Number of BrdU positive cells compared to vehicle group (in words),"[1]; mice, 1 mg/kg orally, 14 days, statistically significant, hydrochloride, 1 mg/kg",higher; also recorded: increased
same,GCL volume,[2]; [5],1.27 ± 0.04 mm^3
same,Number of BrdU positive cells per hippocampus,[2]; [5],6880 ± 436*
same,GCL volume,[2]; [6],1.35 ± 0.04 mm^3
same,Number of BrdU positive cells per hippocampus,[2]; [6],6694 ± 357*
same,"Influence on the volume of rat hippocampal nerve cell layer (GCL), in words","[2]; rats, 0.5 and 2 mg/kg orally, 28 days",no influence
same,Number of BrdU positive cells per hippocampus compared to vehicle group (in words),"[2]; rats, each donepezil group (0.5 and 2 mg/kg orally, 28 days), statistically significant",higher
CN1[C@@H]2CC[C@H]1C[C@@H](OC(=O)C(CO)c1ccccc1)C2 (stereo partly drawn) [atropine],Antagonism of the acetylcholine/carbachol induced intracellular Ca++ increase,[3]; 25 μmol/L pretreatment for 30 minutes,completely antagonized; also recorded: completely inhibited
C[N+](C)(C)CCOC(N)=O [carbachol],Change of intracellular Ca++ concentration on stimulation,"[3]; 25 μmol/L agonist, Fluo-3 fluorescence",increases
Fc1ccc([C@@H]2CCNC[C@H]2COc2ccc3c(c2)OCO3)cc1 [paroxetine],Volume of hippocampus of PTSD patients,[4],increase
